Reference: paper PMC8508903, “Novel Dipyridinium Lipophile-Based Ionic Liquids Tethering Hydrazone Linkage: Design, Synthesis and Antitumorigenic Study” (International Journal of Molecular Sciences, 2021)
Counter-ions that a name gives are not always drawn.

Legend:
H661 lung cancer cells = assay: MTT cell viability assay, H661; type: cell-based, human; details: mean of three independent experiments (N = 9)
Method: (§1) To evaluate the effect of the examined series on the viability of different lung cancer cells, MTT assay was conducted after exposing A549, H1299, and H661 cell lines to increasing concentrations of each compound for 48 h. […] Table 2 and Supplementary Figure S92 (see Supplementary Materials) show the 50% inhibitory concentration (IC50) values for the compounds under investigation in A549, H1299, and H661 lung cancer cells.
(§2) The human lung cancer cell lines A549, H1299 and H661 and the normal cells dermal fibroblasts were obtained from the American Type Culture Collection ATCC. Cells were cultured as a monolayer at seeding density of 8 × 10^3 cells per well in high glucose Dulbecco’s modified eagle medium (DMEM) (Invitrogen, USA), as previously described. The in vitro assessment of the antitumorigenic activities related to the studied compounds was undertaken using the 3-(4,5-dimethylthiazol-2yl)-2,5-diphenyl tetrazolium bromide (MTT) colorimetric assay, as previously reported. The compounds under investigation were tested in three triplicates of each concentration in three independent assays for a total of nine replicates. Both positive (cisplatin) and negative (untreated culture) controls were applied under the same experimental conditions. Cells were cultured for 48 h at 37 °C in a 5% CO2 incubator. Afterwards, MTT assay was carried out where viable cell count was determined based on the amount of formazan crystals, as verified by the absorbance at 490 nm.
(§3) Data was analyzed by Graphpad Prism software (Graphpad Software Inc. Jolla, CA, USA) for the determination of IC50 value. All data were expressed as the average of triplicate experiments.

A549 cells [1] = assay: Wound healing (migration) assay; type: cell-based; details: Homo sapiens, A549, 24 h, A549, 10 µM, read-out: % inhibition of wound closure
Method: The wound healing assay was performed in A549 cells to evaluate the effect of the synthesized series on lung cancer cell migration, as shown in Table 3. The wound of the control sample was completely closed after 24 h. […] Cell migration was inhibited after 24 h of treatment with compounds 22 or 23 compared to untreated control cells.
A549 cells were seeded in inserts (Ibidi GmbH, Gräfelfing, Germany) at concentration of 30,000 per insert in 70 μL medium and incubated for 24 h. Afterward, inserts were removed and cells incubated with 10 μg/mL of mitomycin C for 2 h to stop cell proliferation. The medium was removed, and cells were washed three times then cells were treated with 10 µM concentration of the examined compound. Images were captured at 24 h using BOECO microscope coupled with 5.0 Mega Cmos camera at 4× magnification. Digital images were taken using ISCapture software and wound width was measured using MIPAR software (MIPAR, Worthington, OH, USA).

H1299 lung cancer cells = assay: MTT cell viability assay, H1299; type: cell-based, human; details: mean of three independent experiments (N = 9)
Method: as §1, §2, §3

human dermal fibroblasts = assay: MTT cell viability assay, normal dermal fibroblasts; type: cell-based; details: 48 h, noncancerous human dermal fibroblasts
Method: as §1, §2, §3

A549 lung cancer cells = assay: MTT cell viability assay, A549; type: cell-based, human; details: mean of three independent experiments (N = 9)
Method: as §1, §2, §3

A549 cells [2] = assay: Colony formation in soft agar assay; type: cell-based, human; set-up: Average Colony Size: unit not given here; details: day 12
Method: To investigate the effect of treatment with either potent compound 22 or 23 at two different concentrations (5 and 10 µM) on the colony-forming capability of lung cancer cells, A549 cells were treated with either concentration for 24 h. Afterwards, cells were grown on soft agar.
To carry out the soft agar assay, a bottom agar film of 1% (w/v) was prepared by mixing autoclaved 1% (w/v) agar solution with 2× DMEM medium in a 1:1 ratio and allowed to solidify at room temperature. A mixture of 1 × 10^4 of A549 cells treated with either compound NV7 (5 µM and 10 µM) or NV8 (5 µM and 10 µM) and 0.6% (w/v) agar solution was prepared in 1:1 ratio and poured on top of the bottom layer and left to solidify. Plate was incubated for 2 weeks. Photos were captured after 12 days using EVOS XL Core imaging system (Invitrogen, Waltham, MA, USA).

melting point	IC50 (H661 lung cancer cells; 48 h)	IC50 (H1299 lung cancer cells; 48 h)	IC50 (A549 lung cancer cells; 48 h)	SMILES	IC50 (human dermal fibroblasts)	also measured
–	–	–	–	CCCCCCCCCC[n+]1ccc(C(=O)N/N=C/c2ccc[n+](CCCCCCCCCC)c2)cc1 [Compound 22, 1-Decyl-3-((2-(1-decylpyridin-1-ium-4-carbonyl)hydrazono)methyl)pyridin-1-ium Hexafluorophosphate]	–	IC50 (H661 lung cancer cells; Homo sapiens, NCI-H661, 48 h): 25.6 µM; inhibition at 10 µM (A549 cells [1]): 67.6%; IC50 (H1299 lung cancer cells; Homo sapiens, NCI-H1299, 48 h): 29.1 µM; IC50 (human dermal fibroblasts; Homo sapiens, Fibroblast): > 300 µM; IC50 (A549 lung cancer cells; Homo sapiens, A549, 48 h): 23.5 µM; Average Colony Count (A549 cells [2]; 5 µM): 210; Average Colony Size (A549 cells [2]; 5 µM): 16356; Average Colony Count (A549 cells [2]; 10 µM): 98; Average Colony Size (A549 cells [2]; 10 µM): 11159
58 to 59 °C	–	–	–	CCCCCCCC[n+]1ccc(C(=O)N/N=C/c2ccc[n+](CCCCCCCC)c2)cc1 (as salt: phosphate) [Compound 16, 1-Octyl-3-((2-(1-octylpyridin-1-ium-4-carbonyl)hydrazono)methyl)pyridin-1-ium Hexafluorophosphate]	–	–
192 to 193 °C	26.1 µM	22.1 µM	26.2 µM	CCCCCCCCCCCCCCCCCC[n+]1ccc(C(=O)NN=Cc2ccc[n+](CCCCCCCCCCCCCCCCCC)c2)cc1.[I-].[I-] [Compound 15, 1-Octadecyl-3-((2-(1-octadecylpyridin-1-ium-4-carbonyl)hydrazono)methyl)pyridin-1-ium Iodide]	> 300 µM	–
–	11.3 µM	–	–	CCCCCCCCCC[n+]1ccc(C(=O)NN=Cc2ccc[n+](CCCCCCCCCC)c2)cc1.F[B-](F)(F)F.F[B-](F)(F)F [Compound 23, 1-Decyl-3-((2-(1-decylpyridin-1-ium-4-carbonyl)hydrazono)methyl)pyridin-1-ium Tetrafluoroborate]	–	inhibition at 10 µM (A549 cells [1]): 67.1%; IC50 (H1299 lung cancer cells; Homo sapiens, NCI-H1299, 48 h): 10.8 µM; IC50 (human dermal fibroblasts; Homo sapiens, Fibroblast): > 300 µM; IC50 (A549 lung cancer cells; Homo sapiens, A549, 48 h): 13.5 µM; Average Colony Count (A549 cells [2]; 5 µM): 135; Average Colony Size (A549 cells [2]; 5 µM): 43771; Average Colony Count (A549 cells [2]; 10 µM): 45; Average Colony Size (A549 cells [2]; 10 µM): 16837
–	–	–	–	CCCCCCCCCCCC[n+]1ccc(C(=O)N/N=C/c2ccc[n+](CCCCCCCCCCCC)c2)cc1 [Compound 26, 11-Dodecyl-3-((2-(1-dodecylpyridin-1-ium-4-carbonyl)hydrazono)methyl)pyridin-1-ium Tetrafluoroborate]	–	IC50 (H661 lung cancer cells; Homo sapiens, NCI-H661, 48 h): 40.4 µM; IC50 (H1299 lung cancer cells; Homo sapiens, NCI-H1299, 48 h): 39.3 µM; IC50 (human dermal fibroblasts; Homo sapiens, Fibroblast): > 300 µM; IC50 (A549 lung cancer cells; Homo sapiens, A549, 48 h): 44 µM
–	18.1 µM	19 µM	20 µM	CCCCCCCCCC[n+]1ccc(C(=O)NN=Cc2ccc[n+](CCCCCCCCCC)c2)cc1 [Compound 24, 1-Decyl-3-((2-(1-decylpyridin-1-ium-4-carbonyl)hydrazono)methyl)pyridin-1-ium Trifluoroacetate]	> 300 µM	–
–	–	–	–	CCCCCCCC[n+]1ccc(C(=O)NN=Cc2ccc[n+](CCCCCCCC)c2)cc1 [Compound 17, 1-Octyl-3-((2-(1-octylpyridin-1-ium-4-carbonyl)hydrazono)methyl)pyridin-1-ium Tetrafluoroborate]	–	IC50 (H661 lung cancer cells; Homo sapiens, NCI-H661, 48 h): 61.2 µM; IC50 (H1299 lung cancer cells; Homo sapiens, NCI-H1299, 48 h): 66 µM; IC50 (human dermal fibroblasts; Homo sapiens, Fibroblast): > 300 µM; IC50 (A549 lung cancer cells; Homo sapiens, A549, 48 h): 69.1 µM
63 to 65 °C	29.8 µM	30.1 µM	26.9 µM	CCCCCCCCCCCC[n+]1ccc(C(=O)NN=Cc2ccc[n+](CCCCCCCCCCCC)c2)cc1.[I-].[I-] [Compound 12, 1-Dodecyl-3-((2-(1-dodecylpyridin-1-ium-4-carbonyl)hydrazono)methyl)pyridin-1-ium Iodide]	> 300 µM	–
82 to 84 °C	74.2 µM	64.3 µM	75.3 µM	CCCCCCCC[n+]1ccc(C(=O)NN=Cc2ccc[n+](CCCCCCCC)c2)cc1.[I-].[I-] [Compound 9, 1-Octyl-3-((2-(1-octylpyridin-1-ium-4-carbonyl)hydrazono)methyl)pyridin-1-ium Iodide]	> 300 µM	–
–	382 µM	399 µM	421 µM	CCCCCCCCCCCCCCCCCC[n+]1ccc(C(=O)NN=Cc2ccc[n+](CCCCCCCCCCCCCCCCCC)c2)cc1 [Compound 35, 1-Octadecyl-3-((2-(1-octadecylpyridin-1-ium-4-carbonyl)hydrazono)methyl)pyridin-1-ium Tetrafluoroborate]	> 1000 µM	–
70 to 72 °C	23.5 µM	19 µM	15.1 µM	CCCCCCCCCC[n+]1ccc(C(=O)NN=Cc2ccc[n+](CCCCCCCCCC)c2)cc1.[I-].[I-] [Compound 11, 1-Decyl-3-((2-(1-decylpyridin-1-ium-4-carbonyl)hydrazono)methyl)pyridin-1-ium Iodide]	> 300 µM	–
76 to 78 °C	60.1 µM	63.1 µM	55.6 µM	CCCCCCCCC[n+]1ccc(C(=O)NN=Cc2ccc[n+](CCCCCCCCC)c2)cc1.[I-].[I-] [Compound 10, 1-Nonyl-3-((2-(1-nonylpyridin-1-ium-4-carbonyl)hydrazono)methyl)pyridin-1-ium Iodide]	> 300 µM	–
–	904 µM	947 µM	920 µM	CCCCCCCCCCCCCCCCCC[n+]1ccc(C(=O)NN=Cc2ccc[n+](CCCCCCCCCCCCCCCCCC)c2)cc1 [Compound 36, 1-Octadecyl-3-((2-(1-octadecylpyridin-1-ium-4-carbonyl)hydrazono)methyl)pyridin-1-ium Trifluoroacetate]	> 1000 µM	–
42 to 44 °C	–	–	–	CCCCCCCCCC[n+]1ccc(C(=O)N/N=C/c2ccc[n+](CCCCCCCCCC)c2)cc1 (as salt: phosphate) [Compound 22, 1-Decyl-3-((2-(1-decylpyridin-1-ium-4-carbonyl)hydrazono)methyl)pyridin-1-ium Hexafluorophosphate]	–	–
